Earlier results as cited in US10759826B2, “15β-substituted estrone derivatives as selective inhibitors of 17β-hydroxysteroid-dehydrogenases, method of preparation and use thereof” (USTAV ORGANICKE CHEMIE A BIOCHEMIE AV CR, V.V.I., priority 2016, dated 2020).

Test system: T-47D ER+ cells
Conditions: Laplante et al. 2008; cited from earlier work

Structure (SMILES): C[C@]12CC[C@@H]3c4ccc(O)cc4CC[C@H]3[C@@H]1C[C@H](Cc1cccc(C(N)=O)c1)[C@@H]2O [Compound E2B, 16β-m-carbamoylbenzyl-E2]
- reduction of proliferation induced by the physiological level of E1: 62%
